Test results: PMC8998618, “A Pharmacokinetic and Metabolism Study of the TRPC6 Inhibitor SH045 in Mice by LC-MS/MS” (International Journal of Molecular Sciences, 2022)
Where “and” joins values, the source holds several entries; their conditions need not be identical. Equal entries are not always repeated. Where two headings read alike, the source gives them in different places.

Experiments:
[1] = tissue distribution after single and repeated administration; type: in vivo, mice; settings: for concentration at 24 h: 20 mg/kg, mean ± SEM
Procedure: (§1) Via heparin-coated catheters a maximum of 50 µL blood was collected from the tail vein at 0.25, 0.5, 1, 2, 3, 4, 6, 8, or 24 h after administration and immediately centrifuged at 4000× g at 4 °C for 10 min. For repeated administration 20 mg/kg BW SH045 were administered at 8:00 a.m. on five consecutive days, once a day. Blood was taken 1 h and 24 h after drug administration. Tissue samples were harvested from isoflurane-euthanized animals at indicated time points. Mice were transcardially perfused with PBS and dissected tissues were washed to remove remaining blood. Plasma and tissue samples were stored at −80 °C until analysis. Urine was collected by bladder puncture at indicated time points.
(§2) For tissue analysis, homogenates (10% in phosphate-buffered saline, PBS) were prepared. Homogenate, plasma, and urine were mixed with IS and extracted with ice-cold ACN, centrifuged, filtered and stored in the autosampler at 6 °C until analysis in duplicates by LC-MS/MS (details in Supplementary Materials SM4).
Larixyl-N-methylcarbamate ((1S,4S,4aR,8aS)-4-((S)-3-hydroxy-3-methylpent-4-en-1-yl)-4a,8,8-trimethyl-3-methylenedeca-hydro-naphthalen-1-yl methylcarbamate, SH045, TRPC6 inhibitor) was synthesized as described by Häfner et al. [1]. (+)-Larixol (internal standard, IS) was isolated from Larix decidua turpentine [2]. Kolliphor® EL was obtained from Caelo (Hilden, Germany). Acetonitrile (ACN), water, and formic acid (LC -MS grade each) were purchased from Fisher Scientific (Schwerte, Germany). Testo sterone, 4-nitrophenol, β-nicotinamide adenine dinucleotide 2′ -phosphate reduced tetrasodium salt hydrate (β-NADPH), uridine 5′-diphosphoglucuronic acid ammonium salt (UDPGA), pilocarpine, ticlopidine, quercetin, sulfaphenazole, fluvoxamine, quinidine, 4-methyl pyrazole, ketoconazole, alamethicin and Dulbecco’s phosphate-buffered saline (DPBS, pH 7.4) were obtained from Merck (Darmstadt, Germany). Ciprofloxacin was purchased from Bayer AG (Leverkusen, Germany). Liver microsomes from mice (CD-1, male, MLM) and human (pooled: 50 donors, HLM) were obtained from Fisher Scientific (Gibco, protein concentration: 20 mg/mL respectively). Syringe filters (Phenex, regenerated cellulose, pore-size 0.2 μm) were purchased from Phenomenex (Aschaffenburg, Germany) and centrifugal filter units (30 kDa) from Merck Millipore […]
SM2 Quantification of SH045 by HPLC and tandem mass spectrometric methods (LC-MS/MS) In brief, chromatographic separation was achieved using a Zorbax Eclipse XDB-C8 column (100 × 3.0 mm, 3.5 μm 80 Å, Agilent Technologies) with linear gradient elution using water and ACN, each with 0.1 % formic acid as additive, during a total run time of 20 min. For quantification (+)-larixol was used as IS. MS detection was achieved by multiple reaction monitoring (MRM) scan mode for SH045 (m/z 364.3/289.3) and IS (m/z 307.2/151.2), respectively. Further conditions and parameters were set as reported previously [3]. Freshly prepared calibration samples for SH045 in plasma and tissue comprised eight concentration levels analyzed in duplicates (2, 5, 10, 100, 200, 800, 1200 and 1600 ng/mL). For metabolism studies in microsomes, SH045 was dissolved in pure DMSO. […]
All analyses for metabolite identification included comparative measurements of appropriate control samples in order to avoid false-positive results.
SM3 Histopathological examination of tissue repeatedly exposed to SH045 Liver, kidney and lung were collected after repeated administration for inspection for histopathological changes, fixed in 4% paraformaldehyde solution and embedded in paraffin. Tissue slices (6 µm) of three animals either of untreated controls or such assigned to repeated administration of SH045 were deparaffinized and hematoxylin and eosin-stained. At least 5 slices per animal and tissue were microscopically examined using a light microscope (Zeiss, […]
SM4 Preparation of samples for analysis of SH045 and its metabolites by LC-MS/MS […]

[2] = appearance of SH045 in urine after i.v. administration; type: in vivo, mice; settings: 20 mg/kg BW i.v.
Procedure: Mouse renal elimination of SH045 was exploratorily monitored up to their first spontaneous micturition after i.v. administration (20 mg/kg BW). Samples of released urine were assigned to micturition periods of 10–30, 60–80, or 100–120 min following application. Mean urine concentrations of unmetabolized SH045 of 748 ± 31 (n = 3), 1056 ± 104 (n = 3), and 162 ± 17 nM (n = 6), respectively, were recorded.
as §1, §2

entry into the brain ([1]; 20 mg/kg i.v.): entered the brain | drug accumulation in tissues after repeated administration ([1]; 20 mg/kg i.v. five times once a day): no hints for drug accumulation | concentration at 24 h ([1]; male, C57BL/6, mouse, brain, iv, 24 h after repeated (5 days, once a day) 20 mg/kg BW i.v., read-out: Concentration, Brain): 19.6 ± 5.5 ng/g | concentration at 24 h ([1]; male, C57BL/6, mouse, brain, iv, 24 h after single (1×) 20 mg/kg BW i.v., read-out: Concentration, Brain): 14.8 ± 7.6 ng/g | concentration at 24 h ([1]; male, C57BL/6, mouse, fat, iv, 24 h after repeated (5 days, once a day) 20 mg/kg BW i.v., read-out: Concentration, Fat): 369 ± 50 ng/g | concentration at 24 h ([1]; male, C57BL/6, mouse, fat, iv, 24 h after single (1×) 20 mg/kg BW i.v., read-out: Concentration, Fat): 333 ± 61.2 ng/g | concentration at 24 h ([1]; male, C57BL/6, mouse, kidney, iv, 24 h after repeated (5 days, once a day) 20 mg/kg BW i.v., read-out: Concentration, Kidney): 17.8 ± 4.4 ng/g | concentration at 24 h ([1]; male, C57BL/6, mouse, kidney, iv, 24 h after single (1×) 20 mg/kg BW i.v., read-out: Concentration, Kidney): 14.8 ± 5.9 ng/g | concentration at 24 h ([1]; male, C57BL/6, mouse, liver, iv, 24 h after repeated (5 days, once a day) 20 mg/kg BW i.v., read-out: Concentration, Liver): 17.5 ± 4.6 ng/g | concentration at 24 h ([1]; male, C57BL/6, mouse, liver, iv, 24 h after single (1×) 20 mg/kg BW i.v., read-out: Concentration, Liver): 14.2 ± 5.2 ng/g | Kp ([1]; male, C57BL/6, mouse, lung, iv, 20 mg/kg BW, after i.v. administration, read-out: first-pass uptake into the lung relative to respective plasma concentration): ~20 | concentration at 24 h ([1]; male, C57BL/6, mouse, lung, iv, 24 h after repeated (5 days, once a day) 20 mg/kg BW i.v., read-out: Concentration, Lung): 2390 ± 1020 ng/g | concentration at 24 h ([1]; male, C57BL/6, mouse, lung, iv, 24 h after single (1×) 20 mg/kg BW i.v., read-out: Concentration, Lung): 2170 ± 414 ng/g | urine concentration after 2 h relative to IC50 reported in vitro [2]: about 30 fold | mean urine concentration of unmetabolized SH045 ([2]; micturition period 10–30 min): 748 ± 31 nM | mean urine concentration of unmetabolized SH045 ([2]; micturition period 60–80 min): 1056 ± 104 nM | mean urine concentration of unmetabolized SH045 ([2]; micturition period 100–120 min): 162 ± 17 nM and 160 nM
SMILES: C=C[C@@](C)(O)CC[C@H]1C(=C)C[C@H](OC(=O)NC)[C@H]2C(C)(C)CCC[C@]12C [SH045, (1S,4S,4aR,8aS)-4-((S)-3-Hydroxy-3-methylpent-4-en-1-yl)-4a,8,8-trimethyl-3-methylenedecahydronaphthalen-1-yl methylcarbamate]
